# Patent US12043600B2, “Microbiocidal compounds” (SYNGENTA CROP PROTECTION AG, priority 2018, dated 2024)
# Columns and labels:
# [1] = test system: Plasmopara viticola; assay: whole plant or invertebrate; type: in vivo; details: foliar, read-out: control of Plasmopara viticola
# [2] = test system: Glomerella lagenarium (Colletotrichum lagenarium); assay: Glomerella lagenarium (Colletotrichum lagenarium)/Liquid Culture (Anthracnose); type: cell-based; details: Colletotrichum orbiculare, liquid culture, compared to untreated control
# [3] = test system: Puccinia recondita f. sp. tritici; assay: Puccinia recondita f. sp. tritici/Wheat/Leaf Disc Curative (Brown Rust); type: in vivo; details: foliar, wheat leaf disc curative, compared to untreated control
# Method in brief: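 Formulated compound, diluted in water, is applied to inoculated wheat cv. Kanzler leaf segments on agar one day post-inoculation (pre-incubation dark, 19° C, 75% rh). After 6-8 days at 19° C, 75% rh and 12 h/12 h light, activity is rated as percent disease control relative to untreated segments.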
# [4] = test system: Monographella nivalis (Microdochium nivale); assay: Monographella nivalis (Microdochium nivale)/Liquid Culture (Foot Rot Cereals); type: cell-based; details: liquid culture, compared to untreated control
# Method in brief: (§1)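 Growth inhibition read in liquid culture: spores from frozen stocks, suspended in potato dextrose broth, meet DMSO-dissolved compound placed beforehand in the plate.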
# [5] = test system: Phaeosphaeria nodorum (Septoria nodorum); assay: Phaeosphaeria nodorum (Septoria nodorum)/Wheat/Leaf Disc Preventative (Glume Blotch); type: in vivo; details: Parastagonospora nodorum, foliar, wheat leaf disc preventative, compared to untreated control
# Method in brief: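 Preventative test: compound spray first, then spore inoculation after 2 days on cv. Kanzler wheat leaf segments. Incubation in a climate cabinet at 20 °C and 75% rh under a 12 h light/12 h dark cycle. Activity rated as % control relative to untreated discs at 5–7 days post-application.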
# [6] = test system: Mycosphaerella arachidis (Cercospora arachidicola); assay: Mycosphaerella arachidis (Cercospora arachidicola)/Liquid Culture (Early Leaf Spot); type: cell-based; details: liquid culture, compared to untreated control
# Method in brief: as §1
# [7] = test system: Puccinia recondita f. sp. tritici; assay: Puccinia recondita f. sp. tritici/Wheat/Leaf Disc Preventative (Brown Rust); type: in vivo; details: foliar, 200 ppm, wheat leaf disc preventative, compared to untreated control, read-out: control of Puccinia recondita f. sp. tritici
# [8] = test system: Mycosphaerella graminicola (Septoria tritici); assay: Mycosphaerella graminicola (Septoria tritici)/Liquid Culture (Septoria Blotch); type: cell-based; details: Zymoseptoria tritici; 20 ppm; liquid culture; compared to untreated control
# Method in brief: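 Results given as % disease control: test compound in DMSO was placed in wells first, then potato dextrose broth carrying cryostored fungal conidia was added.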
# [9] = test system: Magnaporthe grisea (Pyricularia oryzae); assay: whole plant or invertebrate; type: in vivo; details: foliar, read-out: control of Magnaporthe grisea
# [10] = test system: Thanatephorus cucumeris (Rhizoctonia solani); assay: Thanatephorus cucumeris (Rhizoctonia solani)/Liquid Culture (Foot Rot, Damping-Off); type: cell-based; details: liquid culture, compared to untreated control
# Description: Mycelia fragments of a newly grown liquid culture of the fungus are directly mixed into nutrient broth (PDB potato dextrose broth). After placing a (DMSO) solution of the test compounds into a microtiter plate (96-well format), the nutrient broth containing the fungal material is added.
# [11] = test system: Botryotinia fuckeliana (Botrytis cinerea); assay: Botryotinia fuckeliana (Botrytis cinerea)/Liquid Culture (Gray Mould); type: cell-based; details: liquid culture, compared to untreated control
# Description: Conidia of the fungus from cryogenic storage are directly mixed into nutrient broth (Vogels broth). After placing a (DMSO) solution of test compound into a microtiter plate (96-well format), the nutrient broth containing the fungal spores is added.
# [12] = test system: Phytophthora infestans; assay: whole plant or invertebrate; type: in vivo; details: in Solanum lycopersicum, foliar, read-out: control of Phytophthora infestans
# [13] = test system: Blumeria graminis f. sp. tritici (Erysiphe graminis f. sp. tritici); assay: Blumeria graminis f. sp. tritici/Wheat/Leaf Disc Preventative (Powdery Mildew on Wheat); type: in vivo; details: foliar, wheat leaf disc preventative, compared to untreated control
# Method in brief: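 Preventative leaf-disc test: percent disease control versus untreated leaf segments read 6-8 days post-application. Compound spray applied to wheat cv. Kanzler segments on agar one day before shaking infected plants over them; incubation at 20° C and 60% rh, 24 h darkness then 12 h light/12 h dark cycles.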
# [14] = test system: Pyrenophora teres; assay: Pyrenophora teres/Barley/Leaf Disc Preventative (Net Blotch); type: in vivo; details: foliar, 200 ppm, barley leaf disc preventative, compared to untreated control, read-out: control of Pyrenophora teres
# Method in brief: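 Preventative leaf-disc test: inoculation with fungal spores took place 2 days after spraying segments of barley cv. Hasso, placed on agar, with water-diluted formulated compound. Read-out is % disease control per compound.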
# [15] = test system: Alternaria solani; assay: Alternaria solani/Tomato/Leaf Disc (Early Blight); type: in vivo; details: foliar, tomato leaf disc, compared to untreated control
# Method in brief: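 Protective leaf-disc test: compound sprayed onto tomato cv. Baby disks, spore inoculation following after 2 days. Disks kept at 80% rh, 12/12 h light/dark, 23° C. day and 21° C. night; activity read as percent disease control relative to untreated checks 5-7 days post-application.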
# [16] = test system: Phakopsora pachyrhizi; assay: Phakopsora pachyrhizi/Soybean/Preventative (Soybean Rust); type: in vivo; details: foliar, 288 h, 200 ppm, soybean leaf disc preventative, compared to untreated control, read-out: control of Phakopsora pachyrhizi
structure (smiles),measurement,setting,value
"CO/C=C(\Oc1cc(-n2ccc(C(C)C)n2)c(OC)cc1C)C(=O)OC [Compound E-31, methyl (Z)-2-[5-(3-isopropylpyrazol-1-yl)-4-methoxy-2-methyl-phenoxy]-3-methoxy-prop-2-enoate]",pest or weed control at 200 ppm,[1],≥ 80%
same,inhibition of growth at 20 ppm,[2],≥ 80%
same,pest or weed control at 200 ppm,[3],≥ 80%
same,inhibition of growth at 20 ppm,[4],≥ 80%
same,pest or weed control at 200 ppm,[5],≥ 80%
same,inhibition of growth at 20 ppm,[6],≥ 80%
same,pest or weed control at 200 ppm,[7],≥ 80%
same,inhibition of growth at 20 ppm,[8],≥ 80%
same,pest or weed control at 200 ppm,[9],≥ 80%
same,inhibition of growth at 20 ppm,[10],≥ 80%
same,inhibition of growth at 20 ppm,[11],≥ 80%
same,pest or weed control at 200 ppm,[12],≥ 80%
"CO/C=C(\Oc1cc(-n2ccc(C(F)(F)F)n2)c(OC)cc1C)C(=O)OC [Compound E-32, methyl (Z)-3-methoxy-2-[4-methoxy-2-methyl-5-[3-(trifluoromethyl)pyrazol-1-yl]phenoxy]prop-2-enoate]",pest or weed control at 200 ppm,[1],≥ 80%
same,pest or weed control at 200 ppm,[13],≥ 80%
same,melting point,,130 to 133 °C
same,inhibition of growth at 20 ppm,[2],≥ 80%
same,pest or weed control at 200 ppm,[3],≥ 80%
same,inhibition of growth at 20 ppm,[4],≥ 80%
same,pest or weed control at 200 ppm,[5],≥ 80%
same,inhibition of growth at 20 ppm,[6],≥ 80%
same,pest or weed control at 200 ppm,[7],≥ 80%
same,inhibition of growth at 20 ppm,[8],≥ 80%
same,pest or weed control at 200 ppm,[9],≥ 80%
same,inhibition of growth at 20 ppm,[10],≥ 80%
same,inhibition of growth at 20 ppm,[11],≥ 80%
same,pest or weed control at 200 ppm,[12],≥ 80%
"C/C=C/c1ccn(-c2ccc(C)c(O/C(=C\OC)C(=O)OC)c2)n1 [Compound E-38, methyl (Z)-3-methoxy-2-[2-methyl-5-[3-[(E)-prop-1-enyl]pyrazol-1-yl]phenoxy]prop-2-enoate]",pest or weed control at 200 ppm,[1],≥ 80%
same,pest or weed control at 200 ppm,[13],≥ 80%
same,melting point,,110 to 112 °C
same,inhibition of growth at 20 ppm,[2],≥ 80%
same,pest or weed control at 200 ppm,[3],≥ 80%
same,inhibition of growth at 20 ppm,[4],≥ 80%
same,inhibition of growth at 20 ppm,[6],≥ 80%
same,pest or weed control at 200 ppm,[7],≥ 80%
same,inhibition of growth at 20 ppm,[8],≥ 80%
same,pest or weed control at 200 ppm,[14],≥ 80%
same,pest or weed control at 200 ppm,[9],≥ 80%
same,inhibition of growth at 20 ppm,[10],≥ 80%
same,inhibition of growth at 20 ppm,[11],≥ 80%
same,pest or weed control at 200 ppm,[12],≥ 80%
"C/C=C(\C)c1ccn(-c2ccc(C)c(O/C(=C\OC)C(=O)OC)c2)n1 [Compound E-43, methyl (Z)-3-methoxy-2-[2-methyl-5-[3-[(E)-1-methylprop-1-enyl]pyrazol-1-yl]phenoxy]prop-2-enoate]",pest or weed control at 200 ppm,[1],≥ 80%
same,melting point,,115 to 118 °C
same,inhibition of growth at 20 ppm,[2],≥ 80%
same,pest or weed control at 200 ppm,[3],≥ 80%
same,inhibition of growth at 20 ppm,[4],≥ 80%
same,inhibition of growth at 20 ppm,[6],≥ 80%
same,pest or weed control at 200 ppm,[7],≥ 80%
same,inhibition of growth at 20 ppm,[8],≥ 80%
same,pest or weed control at 200 ppm,[9],≥ 80%
same,inhibition of growth at 20 ppm,[10],≥ 80%
same,inhibition of growth at 20 ppm,[11],≥ 80%
same,pest or weed control at 200 ppm,[12],≥ 80%
"C=Cc1ccn(-c2ccc(C)c(O/C(=C\OC)C(=O)OC)c2)n1 [Compound E-45, methyl (Z)-3-methoxy-2-[2-methyl-5-(3-vinylpyrazol-1-yl)phenoxy]prop-2-enoate]",pest or weed control at 200 ppm,[1],≥ 80%
same,pest or weed control at 200 ppm,[13],≥ 80%
same,melting point,,114 to 117 °C
same,inhibition of growth at 20 ppm,[2],≥ 80%
same,pest or weed control at 200 ppm,[3],≥ 80%
same,inhibition of growth at 20 ppm,[4],≥ 80%
same,pest or weed control at 200 ppm,[5],≥ 80%
same,inhibition of growth at 20 ppm,[6],≥ 80%
same,pest or weed control at 200 ppm,[7],≥ 80%
same,inhibition of growth at 20 ppm,[8],≥ 80%
same,pest or weed control at 200 ppm,[14],≥ 80%
same,pest or weed control at 200 ppm,[9],≥ 80%
same,inhibition of growth at 20 ppm,[10],≥ 80%
same,pest or weed control at 200 ppm,[12],≥ 80%
"CO/C=C(\Oc1cc(-n2cc(F)c(C(C)C)n2)ccc1C)C(=O)OC [Compound E-46, methyl (Z)-2-[5-(4-fluoro-3-isopropyl-pyrazol-1-yl)-2-methyl-phenoxy]-3-methoxy-prop-2-enoate]",pest or weed control at 200 ppm,[1],≥ 80%
same,melting point,,111 to 113 °C
same,inhibition of growth at 20 ppm,[2],≥ 80%
same,pest or weed control at 200 ppm,[3],≥ 80%
same,inhibition of growth at 20 ppm,[4],≥ 80%
same,inhibition of growth at 20 ppm,[6],≥ 80%
same,pest or weed control at 200 ppm,[7],≥ 80%
same,inhibition of growth at 20 ppm,[8],≥ 80%
same,pest or weed control at 200 ppm,[9],≥ 80%
same,inhibition of growth at 20 ppm,[10],≥ 80%
same,inhibition of growth at 20 ppm,[11],≥ 80%
same,pest or weed control at 200 ppm,[12],≥ 80%
"CO/C=C(\Oc1cc(-n2cc(C(C)C)cn2)ccc1C)C(=O)OC [Compound E-57, methyl (Z)-2-[5-(4-isopropylpyrazol-1-yl)-2-methyl-phenoxy]-3-methoxy-prop-2-enoate]",pest or weed control at 200 ppm,[1],≥ 80%
same,pest or weed control at 200 ppm,[13],≥ 80%
same,inhibition of growth at 20 ppm,[2],≥ 80%
same,pest or weed control at 200 ppm,[3],≥ 80%
same,inhibition of growth at 20 ppm,[4],≥ 80%
same,pest or weed control at 200 ppm,[5],≥ 80%
same,inhibition of growth at 20 ppm,[6],≥ 80%
same,pest or weed control at 200 ppm,[7],≥ 80%
same,inhibition of growth at 20 ppm,[8],≥ 80%
same,pest or weed control at 200 ppm,[9],≥ 80%
same,inhibition of growth at 20 ppm,[10],≥ 80%
same,inhibition of growth at 20 ppm,[11],≥ 80%
same,pest or weed control at 200 ppm,[15],≥ 80%
same,pest or weed control at 200 ppm,[16],≥ 50%
same,pest or weed control at 200 ppm,[12],≥ 80%
"CO/C=C(\Oc1cc(-n2cc(I)cn2)ccc1C)C(=O)OC [Compound E-60, methyl (Z)-2-[5-(4-iodopyrazol-1-yl)-2-methyl-phenoxy]-3-methoxy-prop-2-enoate]",pest or weed control at 200 ppm,[1],≥ 80%
same,pest or weed control at 200 ppm,[13],≥ 80%
same,inhibition of growth at 20 ppm,[2],≥ 80%
same,pest or weed control at 200 ppm,[3],≥ 80%
same,inhibition of growth at 20 ppm,[4],≥ 80%
same,pest or weed control at 200 ppm,[5],≥ 80%
same,inhibition of growth at 20 ppm,[6],≥ 80%
same,pest or weed control at 200 ppm,[7],≥ 80%
same,inhibition of growth at 20 ppm,[8],≥ 80%
same,pest or weed control at 200 ppm,[9],≥ 80%
same,inhibition of growth at 20 ppm,[10],≥ 80%
same,inhibition of growth at 20 ppm,[11],≥ 80%
same,pest or weed control at 200 ppm,[15],≥ 80%
same,pest or weed control at 200 ppm,[12],≥ 80%
"C=C(C)c1ccn(-c2ccc(C)c(O/C(=C\OC)C(=O)OC)c2)n1 [Compound E-65, methyl (Z)-2-[5-(3-isopropenylpyrazol-1-yl)-2-methyl-phenoxy]-3-methoxy-prop-2-enoate]",pest or weed control at 200 ppm,[1],≥ 80%
same,melting point,,80 to 84 °C
same,inhibition of growth at 20 ppm,[2],≥ 80%
same,pest or weed control at 200 ppm,[3],≥ 80%
same,inhibition of growth at 20 ppm,[4],≥ 80%
same,pest or weed control at 200 ppm,[5],≥ 80%
same,inhibition of growth at 20 ppm,[6],≥ 80%
same,pest or weed control at 200 ppm,[7],≥ 80%
same,inhibition of growth at 20 ppm,[8],≥ 80%
same,pest or weed control at 200 ppm,[9],≥ 80%
same,inhibition of growth at 20 ppm,[10],≥ 80%
same,inhibition of growth at 20 ppm,[11],≥ 80%
"CO/C=C(\Oc1cc(-n2ccc(C(F)(F)F)n2)ccc1Cl)C(=O)OC [Compound E-98, methyl (Z)-2-[2-chloro-5-[3-(trifluoromethyl)pyrazol-1-yl]phenoxy]-3-methoxy-prop-2-enoate]",pest or weed control at 200 ppm,[1],≥ 80%
same,pest or weed control at 200 ppm,[13],≥ 80%
same,inhibition of growth at 20 ppm,[2],≥ 80%
same,inhibition of growth at 20 ppm,[4],≥ 80%
same,inhibition of growth at 20 ppm,[6],≥ 80%
same,pest or weed control at 200 ppm,[7],≥ 80%
same,inhibition of growth at 20 ppm,[8],≥ 80%
same,pest or weed control at 200 ppm,[9],≥ 80%
same,inhibition of growth at 20 ppm,[10],≥ 80%
same,inhibition of growth at 20 ppm,[11],≥ 80%
same,pest or weed control at 200 ppm,[15],≥ 80%
same,pest or weed control at 200 ppm,[16],≥ 50%
same,pest or weed control at 200 ppm,[12],≥ 80%
